Measurements taken from ChEMBL document CHEMBL4000202, “Identification of a diverse synthetic abietane diterpenoid library for anticancer activity” (Bioorg Med Chem Lett, 2017).

What was measured:
Type in all cases: functional, cell-based
SK-OV-3 = experiment: Cytotoxic activity against human SKOV3 cells assessed as reduction in cell viability after 72 hrs by SRB assay; settings: SK-OV-3, 72 h
A549 = experiment: Cytotoxic activity against human A549 cells assessed as reduction in cell viability after 72 hrs by SRB assay; settings: A549, 72 h
PC-3 = experiment: Cytotoxic activity against human PC3 cells assessed as reduction in cell viability after 72 hrs by SRB assay; settings: PC-3, 72 h

Row | Compound | IC50 (SK-OV-3) | IC50 (A549) | IC50 (PC-3)
1 | COc1c(C(C)C)ccc2c1CC[C@H]1[C@H]3COC(=O)[C@H]3CC[C@]21C | > 100 µM | > 100 µM | > 100 µM
2 | CCOCC[C@]12CCC3=C(COC3=O)[C@@H]1CCc1c2ccc(C(C)C)c1OC | > 100 µM | > 100 µM | > 100 µM
3 | COC(=O)[C@]1(C)CCC[C@]2(C)c3ccc(C(C)C)c(OC)c3[C@H](O)C[C@@H]12 | 72.2 µM | 76.6 µM | 55.9 µM
4 | COC(=O)[C@]1(C)CCC[C@@]2(C)[C@H]1CC=C1C=C(C(C)C)CC[C@@H]12 [METHYL ABIETATE] | 81.3 µM | 63.1 µM | 79.3 µM
5 | C[C@]12CC=C3C(=O)OC[C@@H]3[C@@H]1CCc1ccccc12 | > 100 µM | > 100 µM | > 100 µM
6 | COc1c(C(C)C)ccc2c1CC=C1C3=C(CCC12C)C(=O)OC3 (single isomer, unassigned) | 24 µM | 74.9 µM | 48 µM
7 | COC(=O)[C@]1(C)CCC[C@]2(C)c3ccc(C(C)C)c(OC)c3[C@@H](O)C[C@@H]12 | 51.9 µM | 85.7 µM | 64.2 µM
8 | C=CCOc1cccc2c1C(=O)C[C@H]1C3=C(CC[C@]21C)C(=O)OC3 | > 100 µM | 89.4 µM | > 100 µM
9 | COc1cccc2c1CC[C@H]1[C@H]3COC(=O)C3=CC[C@]21C | > 100 µM | 88.9 µM | > 100 µM
10 | CC(C)C1=CC2=CC[C@@H]3[C@](C)(CCC[C@@]3(C)C(=O)O)[C@H]2CC1 [ABIETIC ACID] | 90.4 µM | > 100 µM | > 100 µM
11 | C=C1C(=C(SC)SC)CC[C@]2(CO)c3ccc(C(C)C)c(OC)c3CC[C@@H]12 | 32.9 µM | 53.8 µM | 50.1 µM
12 | CC(C)(C)[Si](C)(C)O[C@@H]1CC[C@]2(C)c3ccccc3CC[C@H]2[C@H]1CO | > 100 µM | > 100 µM | > 100 µM
13 | CC(C)c1ccc2c(c1O)C(=O)C[C@H]1C3=C(CC[C@]21C)C(=O)OC3 | 42.5 µM | 77.3 µM | 58 µM
14 | COc1c(C(C)C)ccc2c1C=C[C@H]1C3=C(CC[C@]21C)C(=O)OC3 | > 100 µM | > 100 µM | > 100 µM
15 | COc1c(C(C)C)ccc2c1CC[C@H]1[C@@H](O)CCC[C@]21CO[N+](=O)[O-] | > 100 µM | > 100 µM | > 100 µM
16 | COc1cccc2c1CC[C@H]1[C@@H](CO)[C@H](O[Si](C)(C)C(C)(C)C)CC[C@]21C | > 100 µM | > 100 µM | > 100 µM
17 | COC(=O)[C@]1(C)CCC[C@]2(C)c3cc([N+](=O)[O-])c(C(C)C)cc3CC[C@@H]12 | 47.8 µM | 89.4 µM | 81.9 µM
18 | COc1c(C(C)C)ccc2c1CC[C@H]1C3=C(CC[C@]21C)C(=O)OC3 | 49.8 µM | 98.8 µM | 50.4 µM
19 | C[C@]12CCC3=C(COC3=O)[C@@H]1CCc1ccccc12 | > 100 µM | > 100 µM | > 100 µM
20 | C=C1C(=C(SC)SC)CC[C@]2(COCOCC)c3ccc(C(C)C)c(OC)c3CC[C@@H]12 | 26 µM | 99.8 µM | 19.4 µM
21 | COc1cccc2c1CC[C@H]1[C@H]3COC(=O)[C@@]3(O)C(=O)C[C@]21C | > 100 µM | > 100 µM | > 100 µM
22 | C=C1C(CO)=CC[C@]2(C)c3ccc(C(C)C)c(OC)c3C(=O)C[C@@H]12 | > 100 µM | > 100 µM | > 100 µM
23 | CC(C)(C)C(=O)OC[C@H]1[C@H](O)CC[C@]2(C)c3ccccc3CC[C@@H]12 | 43.2 µM | 64.5 µM | 49.2 µM
24 | COc1c(C(C)C)ccc2c1CC[C@@]1(O)C3=C(C(=O)OC3)[C@@H](O)C[C@]21C | 92.2 µM | > 100 µM | > 100 µM
25 | COc1c(C(C)C)ccc2c1CC[C@H]1C(=O)CCC[C@]21CO[N+](=O)[O-] | > 100 µM | > 100 µM | > 100 µM
26 | COC(=O)[C@]1(C)CCC[C@]2(C)c3ccc(C(C)C)c(OC)c3CC[C@@H]12 | 65.2 µM | > 100 µM | 59.9 µM
27 | COC(=O)C1=C[C@@H]2CCc3c(ccc(C(C)C)c3OC)[C@@]2(C)CC1 | > 100 µM | > 100 µM | > 100 µM
28 | CC(C)c1ccc2c(c1O)CC[C@H]1C3=C(CC[C@]21C)C(=O)OC3 [TRIPTOPHENOLIDE] | > 100 µM | > 100 µM | > 100 µM
29 | COC(=O)[C@]1(C)CCC[C@@]2(C)[C@H]1CC=C1[C@@H]2CC[C@](O)(C(C)C)[C@H]1O | 92.9 µM | 92.4 µM | > 100 µM
